Laboratory results taken from patent publication US5643776A, “Insect diagnostic and control compositions” (The Regents of the University of California, priority 1992, dated 1997).

Tests used:
[1] = biological target: T1, juvenile hormone esterase (JHE) of Heliothis virescens, wild type (Heliothis virescens, UniProt P12992); experiment: Kinetics of juvenile hormone hydrolysis by juvenile hormone esterase; format: biochemical
T1 sequence (P12992 20-564): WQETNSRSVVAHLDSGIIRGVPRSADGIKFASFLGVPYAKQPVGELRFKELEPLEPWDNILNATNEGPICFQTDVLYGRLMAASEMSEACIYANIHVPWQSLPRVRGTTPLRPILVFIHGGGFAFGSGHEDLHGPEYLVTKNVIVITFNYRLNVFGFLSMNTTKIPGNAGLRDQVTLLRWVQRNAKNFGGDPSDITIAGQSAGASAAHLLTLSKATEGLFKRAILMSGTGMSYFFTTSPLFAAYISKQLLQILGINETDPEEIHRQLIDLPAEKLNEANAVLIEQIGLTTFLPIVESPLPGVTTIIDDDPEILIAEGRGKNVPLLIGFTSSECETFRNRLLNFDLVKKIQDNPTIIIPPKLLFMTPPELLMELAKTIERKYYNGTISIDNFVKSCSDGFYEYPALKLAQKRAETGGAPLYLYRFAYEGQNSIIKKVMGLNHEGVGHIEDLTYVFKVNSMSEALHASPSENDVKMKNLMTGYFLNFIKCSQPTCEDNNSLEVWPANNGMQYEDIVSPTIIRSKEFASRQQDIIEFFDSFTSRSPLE

[2] = biological target: T2, juvenile hormone hemolymph carrier protein of H. virescens (Heliothis virescens, UniProt Q25175); experiment: Binding of juvenile hormone by the hemolymph carrier protein; details: juvenile hormone bound by the carrier protein; for H. virescens
T2 sequence (Q25175 19-242): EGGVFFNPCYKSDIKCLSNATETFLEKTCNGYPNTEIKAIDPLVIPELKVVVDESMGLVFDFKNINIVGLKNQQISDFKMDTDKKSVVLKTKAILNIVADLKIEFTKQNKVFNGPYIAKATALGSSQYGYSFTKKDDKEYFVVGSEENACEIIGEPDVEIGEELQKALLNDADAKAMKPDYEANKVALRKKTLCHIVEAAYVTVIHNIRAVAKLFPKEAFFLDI

## juvenile hormone
[1]; substrate JH, JHE of H. virescens and of several other species
  kCAT/KM ratio: > 10^8
[1]; substrate juvenile hormone
  Km: 0.06 µM
[2]
  Kd: 0.61 µM
